Laboratory results from patent publication US5834506A, “Dihydropyrones with improved antiviral activity” (Warner-Lambert Company, priority 1997, dated 1998).
Read-outs that look alike come from different tables or passages of the source.

Columns and labels:
[1] = Cellular toxicity in uninfected CEM cells (TC50); format: cell-based; conditions: human, inhibits 50% of the viability of uninfected cells
Description: (§1) Compounds were tested in lymphocyte derived CEM cells using the XTT cytopathic procedures and were performed at Southern Research Institute (Buckheit, et. al. Antiviral Res. 1993, 21, 247; see also Weislow, et al. J Nat. Cancer Inst., 1989, 81, 577). Compound concentrations were 0.32, 1, 3.2, 10, 32 and 100 uM. The EC50 represents the concentration of agent which reduces HIV cytopathic effects 50% relative to untreated control. EC95 represents the concentration of agent protecting the cells 95% relative to untreated control. Cellular toxicity of the agents are estimated from the TC50 which represents the concentration of the agent which inhibits 50% of the viability of uninfected cells.

[2] = target: T1, HIV-1 protease (Human immunodeficiency virus type 1 group M subtype B, UniProt P04585); assay: biochemical; conditions: read-out: Inhib of HIV-Protease IC50
T1 construct: Recombinant HIV-1 protease (>96% purity); purchased Bachem Bioscience Inc. (King of Prussia, PA)
Description: The testing of specific 5,6-dihydropyrones as inhibitors of the HIV aspartyl protease, based on the study of the hydrolysis of an undecapeptide enzyme substrate, and the testing of the 5,6-dihydropyrones as inhibitors of viral growth and infectivity, based on the study of infection of H9 cell lines by the HIV-1iiib strain, are also disclosed. […] The methods employed follow the procedures of Tummino, et al. (Archives of Biochemistry and Biophysics 1995, 316, 523).
(§2) The compounds of the present invention were evaluated for their in vitro inhibition of HIV-1 protease and for their antiviral efficacy in HIV infected lymphocytes.
Recombinant HIV-1 protease (>96% purity) and HIV protease substrate III (the undecapeptide H-His-Lys-Ala-Arg-Val-Leu-Nph-Glu-Ala-Nle-Ser-NH2,>97% purity) were purchased from Bachem Bioscience Inc. (King of Prussia, PA).
The methods employed follow the procedures of Tummino, et al. (Archives of Biochemistry and Biophysics 1995, 316, 523). […] (total volume, 100 μl). […] The final inhibitor concentrations used were 0 (0.1, 0.2, in some experiments), 0.5, 1, 2, 5, 10, 20, 50, and 100 μM. The solution was mixed, incubated for 5 minutes and the reaction quenched by addition of trifluoracetic acid, 2% final. The (leu-p-nitro-phe) bond of the substrate is cleaved by the enzyme and substrate and products separated by reverse-phase HPLC. Absorbance was measured at 220 nm, peak areas determined, and percentage conversion to product used to calculate percentage control (=[% conversion (+inhibitor)/% conversion (-inhibitor)]×100).

[3] = tested on: HIV in lymphocyte derived CEM cells; assay: Cellular Infection Assay, antiviral efficacy in HIV infected CEM cells (XTT cytopathic procedure); format: cell-based; conditions: Human immunodeficiency virus 1, CCRF-CEM, CEM cells; for EC95: protecting the cells 95% relative to untreated control; for EC50: reduces HIV cytopathic effects 50% relative to untreated control, read-out: Antiviral Efficacy EC50
Description: as §2, §1

[4] = 6.0 nM HIV-1 protease, 40 μM substrate III, 37° C., 5 minutes

| Structure (SMILES) | CC50 [1] | IC50 [2, 4] | EC95 [3] | EC50 [3] | IC50 [2] |
| --- | --- | --- | --- | --- | --- |
| Cc1cc(SC2=C(O)CC(C)(CCc3ccc(O)cc3)OC2=O)c(C(C)(C)C)cc1OCCO (racemic) [Example 1, 3-[2-tert-Butyl-4-(2-hydroxy-ethoxy)-5-methyl-phenylsulfanyl]-4-hydroxy-6-[2-(4-hydroxy-phenyl)-ethyl]-6-methyl-5,6-dihydro-pyran-2-one, (+/-)] | > 100000 nM | 6.8 nM | 18000 nM | 3400 nM |  |
| Cc1cc(SC2=C(O)CC(CCc3ccc(O)cc3)(C(C)C)OC2=O)c(C(C)(C)C)cc1CO (racemic) [Example 2, 3-[2-tert-Butyl-4-hydroxymethyl-5-methyl-phenylsulfanyl]-4-hydroxy-6-[2-(4-hydroxy-phenyl)-ethyl]-6-isopropyl-5,6-dihydro-pyran-2-one, (+/-)] | > 100000 nM |  | 1000 nM | 600 nM | 3.6 nM |
| CCNS(=O)(=O)Oc1cc(C(C)(C)C)c(SC2=C(O)CC(C)(CCc3ccc(O)cc3)OC2=O)cc1C (racemic) [Example 3] | 66000 nM | 2.3 nM | 12000 nM | 1500 nM |  |
| Cc1cc(SC2=C(O)CC(C)(CCc3ccc(O)cc3)OC2=O)c(C(C)(C)C)cc1OS(=O)(=O)N(C)C (racemic) [Example 4] | 71000 nM |  | 17000 nM | 2500 nM | 1.6 nM |
| Cc1cc(SC2=C(O)CC(CCc3ccc(O)cc3)(C(C)C)OC2=O)c(C(C)(C)C)cc1OCCO (racemic) [Example 5, 3-[2-tert-Butyl-4-(2-hydroxy-ethoxy)-5-methyl-phenylsulfanyl]-4-hydroxy-6-[2-(4-hydroxy-phenyl)-ethyl]-6-isopropyl-5,6-dihydro-pyran-2-one, (+/-)] | 66000 nM | 2.8 nM | 3200 nM | 1500 nM |  |
| Cc1cc(SC2=C(O)CC(C)(CCc3ccc(O)cc3)OC2=O)c(C(C)(C)C)cc1OS(=O)(=O)NC(C)(C)C (racemic) [Example 6, tert-Butyl-sulfamic acid 5-tert-Butyl-4-{4-hydroxy-6-[2-(4-hydroxy-phenyl)-ethyl]-6-methyl-2-oxo-5,6-dihydro-2H-pyran-3-ylsulfanyl}-2-methyl-phenyl ester, (+/-)] | 56000 nM | 3.8 nM | 8500 nM | 2300 nM |  |
| CCCCC1(CCc2ccc(O)cc2)CC(O)=C(Sc2cc(C)c(CO)cc2C(C)(C)C)C(=O)O1 (racemic) [Example 7, 6-Butyl-3-[2-tert-butyl-4-hydroxymethyl-5-methyl-phenylsulfanyl]-4-hydroxy-6-[2-(4-hydroxy-phenyl)-ethyl]-5,6-dihydro-pyran-2-one, (+/-)] | 63000 nM | 4.1 nM | 3000 nM | 900 nM |  |
| Cc1ccc(C(C)(C)C)c(SC2=C(O)CC(CCc3ccccc3)(c3ccccc3)OC2=O)c1 (racemic) [Ref B, 3-(2-tert-Buty5-methyl-phenylsulfanyl)-4-hydroxy-6-phenethyl-6-phenyl-5,6-dihydro-pyran-2-one, (+/-), reference compound] | 55000 nM |  |  | > 55000 nM | 35 nM |
| CCNS(=O)(=O)Oc1cc(C(C)(C)C)c(SC2=C(O)CC(CCc3ccc(O)cc3)(C3CCCCC3)OC2=O)cc1C (centres unmarked) [Example 8, Ethyl-sulfamic acid 5-tert-butyl-4-{6-cyclohexyl-4-hydroxy-6-[2-(4-hydroxy-phenyl)-ethyl]-2-oxo-5,6-dihydro-2H-pyran-3-ylsulfanyl}-2-methyl-phenyl ester] | 67000 nM | 4.8 nM | 5300 nM | 1400 nM |  |
| Cc1cc(SC2=C(O)C[C@@](CCc3cccc(O)c3)(C3CCCC3)OC2=O)c(C(C)(C)C)cc1CO [Example 40] | > 100000 nM |  | < 300 nM | < 300 nM |  |
| CCc1cc(SC2=C(O)CC(CCc3ccc(O)cc3)(C(C)C)OC2=O)c(C(C)(C)C)cc1CO (centres unmarked) [Example 97] | > 100000 nM |  | 2800 nM | 800 nM |  |
| Cc1cc(CCC2(C(C)C)CC(O)=C(Sc3cc(C)c(CO)cc3C(C)(C)C)C(=O)O2)ccc1O (centres unmarked) [Example 100] | 84000 nM |  | 900 nM | 330 nM |  |
